Experimental data reported in the supplement of paper PMC5579334.

Key:
YST-1 = experiment: relative IC50 (inflection point of fitted dose-response curve, CellTiter-Glo viability, 72 h; top asymptote may be below 50% inhibition); higher = less potent
In short: (§1)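 MPNST cell lines and primary human Schwann cells (750–1000 cells per well) went into 384-well plates preprinted with each compound at five concentrations in 10-fold steps. Plates were incubated 72 h at 37 °C, 5% CO2. Viability was read as CellTiter-Glo ATP luminescence, scaled between vehicle and positive-control wells, with duplicates averaged where present. Percent inhibition is at the top concentration; drug sensitivity score and relative IC50 (censored at top concentration) come from four-parameter logistic fits.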

HS-Sch-2 = experiment: as above
In short: as §1

HS-PSS [1] = experiment: as above
In short: as §1

HS-PSS [2] = experiment: relative IC50 (inflection point of fitted dose-response curve, CellTox-Green cytotoxicity, 72 h; top asymptote may be below 50%); higher = less potent
In short: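 MPNST cell lines and primary human Schwann cells were incubated 72 h at 37 °C in 384-well plates holding five 10-fold compound dilutions. CellTox-Green was added before seeding at a final 1:1000 dilution and reported fluorescence from DNA released by disrupted cells. Signals were scaled to vehicle and positive-control wells, and cultures failing plate quality control were dropped. Drug sensitivity score and relative IC50 come from four-parameter logistic fits, with IC50 censored at the top concentration.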

| SMILES | relative IC50 (YST-1) | relative IC50 (HS-Sch-2) | relative IC50 (HS-PSS [1]) | relative IC50 (HS-PSS [2]) |
| --- | --- | --- | --- | --- |
| C[C@@H](Oc1cc(-n2cnc3ccc(CN4CCN(C)CC4)cc32)sc1C(N)=O)c1ccccc1C(F)(F)F | 0.0209 µM | 0.0119 µM | 0.501 µM | 3.2 µM |
| C[C@@H](Oc1ccc2[nH]nc(/C=C/c3cnn(CCO)c3)c2c1)c1c(Cl)cncc1Cl | 0.114 µM | 0.118 µM | 0.187 µM | 0.245 µM |
| CS(=O)(=O)N1CCc2c(-c3cnc(N)nc3)nc(N3CCOCC3)nc21 | 0.256 µM | 1.05 µM | 0.687 µM | > 10 µM |
| C[C@@H]1C[C@H]2O[C@@H]2/C=C\C=C\C(=O)Cc2c(Cl)c(O)cc(O)c2C(=O)O1 [Radicicol] | 0.81 µM | 0.353 µM | 0.545 µM | 1.14 µM |
| COc1cc(OC)c(/C=C/S(=O)(=O)Cc2ccc(OC)c(NCC(=O)O)c2)c(OC)c1 [Rigosertib] | 0.0592 µM | 0.0922 µM | 0.13 µM | > 10 µM |
| CCNC(=O)Nc1ccc(-c2nc3c(c(N4CCOC[C@@H]4C)n2)CCN(C2COC2)C3)cc1 [RG-7603] | 0.192 µM | 0.356 µM | 0.777 µM | > 2.5 µM |
| CN1CCC(CNc2ccc3ncc(-c4cccc(OC(F)(F)F)c4)n3n2)CC1 [SGI-1776] | 1.66 µM | 2.37 µM | 2.47 µM | 2.51 µM |
| CC(C)(O)CC(=O)NCCn1ccc2ncnc(Nc3ccc(Oc4cccc(C(F)(F)F)c4)c(Cl)c3)c21 [TAK-285] | > 2.5 µM | > 2.5 µM | > 2.5 µM | > 2.5 µM |
| Nc1ncnc2c1c(-c1cccc(OCc3ccccc3)c1)cn2[C@H]1C[C@@H](CN2CCC2)C1 [NVP-AEW541] | 0.654 µM | 1.96 µM | 3.02 µM | 2.38 µM |
| CN(C)Cc1c(C(=O)NCCOc2ccc(C(=O)NO)cc2)oc2ccccc12 [Abexinostat] | 0.0723 µM | 0.197 µM | 0.333 µM | 1.43 µM |
| C1=N/C2=N/c3ccc(OCCN4CCCC4)c(c3)COC/C=C/COCc3cccc(c3)C(=C1)N2 [Pacritinib] | 1.94 µM | 1.76 µM | 1.18 µM | 2.78 µM |
| Cc1nc(Nc2n[nH]c3c2CN(C(=O)N[C@H](CN(C)C)c2ccccc2)C3(C)C)c2sccc2n1 | 0.067 µM | 0.413 µM | 0.0225 µM | 0.127 µM |
| NC[C@@](O)(c1ccc(Cl)cc1)c1ccc(-c2cn[nH]c2)cc1 | 2.97 µM | 1.51 µM | 2.03 µM | 2.78 µM |
| Cn1cc(-c2cnn3c(N)c(Br)c([C@@H]4CCCNC4)nc23)cn1 [MK-8776] | 0.362 µM | 0.36 µM | > 2.5 µM | > 2.5 µM |
| O=C(O)C(=O)O.[NH-][C@@H]1CCCC[C@H]1[NH-].[Pt+2] [Oxaliplatin] | 1.97 µM | 9.67 µM | 7.51 µM | 23.2 µM |
| CCN(CC)Cc1ccc2cc(COC(=O)Nc3ccc(C(=O)NO)cc3)ccc2c1 [Givinostat] | 0.0637 µM | 0.166 µM | 0.351 µM | 0.253 µM |
| Cc1sc2c(c1C)C(c1ccc(Cl)cc1)=N[C@@H](CC(=O)OC(C)(C)C)c1nnc(C)n1-2 [JQ1] | 0.28 µM | 0.331 µM | 0.379 µM | > 10 µM |
| Cc1cc(C(=O)NOCCO)c(Nc2ccc(I)cc2F)n(C)c1=O [AZD-8330] | > 10 µM | 0.174 µM | 0.322 µM | > 10 µM |
| CCN(CC)C(=S)SSC(=S)N(CC)CC [Disulfiram] | 0.303 µM | 0.6 µM | 0.291 µM | 6.65 µM |

| SMILES | relative IC50 (YST-1) | relative IC50 (HS-Sch-2) | relative IC50 (HS-PSS [1]) | relative IC50 (HS-PSS [2]) |
| --- | --- | --- | --- | --- |
| O=C(O)CSc1cc(NS(=O)(=O)c2ccc(Br)cc2)c2ccccc2c1O [UMI-77] | 3.04 µM | 5.66 µM | 26.9 µM | 30.5 µM |
| COc1ccc(-c2ccc3ncc4c(c3c2)n(-c2ccc(N3CCNCC3)c(C(F)(F)F)c2)c(=O)n4C)cn1 [NVP-BGT226] | 0.0179 µM | 0.0125 µM | 0.0404 µM | 0.335 µM |
| CCn1c(=O)c(-c2cc[nH]n2)cc2c(C)nc(N)nc21 [Voxtalisib] | 1.12 µM | 2.18 µM | 2.33 µM | > 10 µM |
| COc1ccc(CCc2nc3cc(-c4c(C)noc4C)ccc3n2C[C@H](C)N2CCOCC2)cc1Cl [SGC-CBP30] | 3.97 µM | 3.85 µM | 9.71 µM | > 25 µM |
| CC(C)N(C[C@H]1O[C@@H](n2cnc3c(N)ncnc32)[C@H](O)[C@@H]1O)[C@H]1C[C@@H](CCc2nc3cc(C(C)(C)C)ccc3[nH]2)C1 [Pinometostat] | > 1 µM | > 1 µM | > 1 µM | > 1 µM |
| CC(C)NC(=O)COc1cccc(-c2nc(Nc3ccc4[nH]ncc4c3)c3ccccc3n2)c1 [SLx-2119] | 0.193 µM | 0.653 µM | 1.04 µM | > 5 µM |
| Oc1ncc(N(CCCl)CCCl)c(O)n1 [Uramustine] | > 10 µM | > 10 µM | > 10 µM | > 10 µM |
| CNC(=O)c1ccc2cc([C@@]3(O)CCn4cncc43)ccc2c1 [Orteronel] | > 10 µM | > 10 µM | > 10 µM | > 10 µM |
| O=C(/C=C\n1cnc(-c2cc(C(F)(F)F)cc(C(F)(F)F)c2)n1)NNc1cnccn1 [Selinexor] | 0.115 µM | 0.211 µM | 0.404 µM | 1.46 µM |
| Cc1sc2c(c1C)C(c1ccc(Cl)cc1)=N[C@@H](CC(=O)Nc1ccc(O)cc1)c1nnc(C)n1-2 [OTX015] | 0.162 µM | 0.223 µM | 0.321 µM | > 10 µM |
| CNc1ncc2cc(-c3cc(NC(=O)NCCC(C)(C)C)c(F)cc3C)c(C)nc2n1 | 0.561 µM | 0.235 µM | 3.82 µM | 3.59 µM |
| Cc1cnc(Nc2ccc(OCCN3CCCC3)cc2)nc1Nc1cccc(S(=O)(=O)NC(C)(C)C)c1 [Fedratinib] | 1.52 µM | 1.18 µM | 1.44 µM | 3.37 µM |
| COc1c(OCCCN2CCOCC2)ccc2c1N=C(NC(=O)c1cnc(N)nc1)N1CCN=C21 [Copanlisib] | 0.0221 µM | 0.113 µM | 0.405 µM | > 1 µM |
| COc1ncc(-c2ccc3nccc(-c4ccnnc4)c3c2)cc1NS(=O)(=O)c1ccc(F)cc1F [Omipalisib] | 0.00688 µM | 0.0984 µM | 0.0352 µM | > 1 µM |
| O=C(NOCCO)c1ccc2cncn2c1Nc1ccc(I)cc1F [GDC-0623] | > 2.5 µM | 0.368 µM | 0.3 µM | > 2.5 µM |
| CN(C[C@@H]1COCCO1)S(=O)(=O)Nc1ccc2ccc3ncc(-c4cnn(C)c4)cc3c(=O)c2c1 [MK-2461] | 1.68 µM | 3.48 µM | 4.1 µM | > 10 µM |
| NC(=O)N1CCC(CC(=O)N2CCC([C@H]3c4ncc(Br)cc4CCc4cc(Cl)cc(Br)c43)CC2)CC1 [Lonafarnib] | 1.37 µM | 1.66 µM | 2.15 µM | > 10 µM |
| CN(CC(=O)N(Cc1ccc(C2CCCCC2)cc1)c1ccc(C(=O)O)cc1)S(=O)(=O)c1c(F)c(F)c(F)c(F)c1F [SH-4-54] | 3.26 µM | 5.27 µM | 7.51 µM | 7.28 µM |
| O=C(O)c1ccc(CN2CCC(CN[C@@H]3C[C@H]3c3ccccc3)CC2)cc1 | > 10 µM | > 10 µM | > 10 µM | > 10 µM |

| SMILES | relative IC50 (YST-1) | relative IC50 (HS-Sch-2) | relative IC50 (HS-PSS [1]) | relative IC50 (HS-PSS [2]) |
| --- | --- | --- | --- | --- |
| Cn1cc(C2=Nc3cc(NC(=O)C(N)C4CCCCC4)cc4c3C2=CNNC4=O)cn1 (stereo unspecified) | 0.163 µM | 0.108 µM | 0.0771 µM | > 10 µM |
| S=C(NCc1ccc2c(c1)OCO2)N1CCN(c2ncnc3c2oc2ccccc23)CC1 [Amuvatinib] | 3.54 µM | 2.07 µM | 1.01 µM | > 10 µM |
| CN(C)C(=O)c1cc2cnc(Nc3ccc(N4CCNCC4)cn3)nc2n1C1CCCC1 [Ribociclib] | 1.53 µM | 1.61 µM | 2.03 µM | > 10 µM |
| CN(C)Cc1ccc(S(=O)(=O)n2ccc(/C=C/C(=O)NO)c2)cc1 [Resminostat] | 0.578 µM | 2.17 µM | 2.18 µM | 3.06 µM |
| Cc1c(F)cc(C(=O)NC2CC2)cc1-c1ccc(C(=O)NCC(C)(C)C)cn1 [Losmapimod] | 0.0249 µM | > 10 µM | > 10 µM | > 10 µM |
| CN(C)c1cc2c(cc1Sc1nc3c(N)nccc3n1CCNCC(C)(C)C)OCO2 [CUDC-305] | 0.516 µM | 0.219 µM | 0.51 µM | 0.384 µM |
| COC[C@H](NC(=O)c1cnc(C)s1)C(=O)N[C@@H](COC)C(=O)N[C@@H](Cc1ccccc1)C(=O)[C@@]1(C)CO1 [Oprozomib] | 0.0721 µM | 0.0167 µM | 0.148 µM | 0.486 µM |
| Cn1cc(C[C@@H](N)C(=O)O)c2ccccc21 [1-methyl-D-tryptophan] | > 5 µM | > 5 µM | > 5 µM | > 5 µM |
| Cc1cc(Nc2cc(N3CCN(C)CC3)nc(Sc3ccc(NC(=O)C4CC4)cc3)n2)n[nH]1 [Tozasertib] | 0.0421 µM | 0.552 µM | 0.315 µM | > 10 µM |
| c1ccc(Cn2c(-c3ccc(OC[C@H](C4CCNCC4)n4c(-c5ccccc5)nc5ccccc54)cc3)nc3ccccc32)cc1 [deltarasin] | 3.36 µM | 3.06 µM | 2.47 µM | 2.47 µM |
| CCCC(CCC)C(=O)O [Valproic acid] | 306 µM | > 1000 µM | > 1000 µM | > 1000 µM |
| C/C=C1\NC(=O)[C@H]2CSSCC/C=C/[C@H](CC(=O)N[C@H](C(C)C)C(=O)N2)OC(=O)[C@H](C(C)C)NC1=O [Romidepsin] | 0.00075 µM | 0.002 µM | 0.3 µM | 0.337 µM |
| CO[C@H]1C(=O)[C@]2(C)[C@@H](OC)C[C@H]3OC[C@@]3(OC(C)=O)[C@H]2[C@H](OC(=O)c2ccccc2)[C@]2(O)C[C@H](OC(=O)[C@H](O)[C@@H](NC(=O)OC(C)(C)C)c3ccccc3)C(C)=C1C2(C)C [Cabazitaxel] | 0.00074 µM | 0.00094 µM | 0.418 µM | – |
| CC(=O)c1cnc2ccc(-c3cc(Cl)c(O)c(Cl)c3)nc2c1N[C@H]1CC[C@H](CN(C)C)CC1 [OTSSP167] | 0.0108 µM | 0.0261 µM | 0.339 µM | – |
| CNC(=O)c1nn(C)c2c1C(C)(C)Cc1cnc(Nc3ccc(N4CCN(C)CC4)cc3)nc1-2 [Milciclib] | 0.351 µM | 1.24 µM | 0.779 µM | – |
| NC(=O)c1cccc2cn(-c3ccc(C4CCCNC4)cc3)nc12 (stereo unspecified) [Niraparib] | 0.461 µM | 0.661 µM | 1.76 µM | – |
| CC(C)Oc1ccc(C(=O)N[C@H](CNC(=O)CN(C)C)Cc2ccc(-c3cn4cccc([C@H](C)O)c4n3)cc2)cc1Cl | 0.0754 µM | 0.0723 µM | 0.757 µM | – |
| O=C(CCCCCCNC(=O)c1cnc(N(c2ccccc2)c2ccccc2)nc1)NO [Rocilinostat] | 1.24 µM | 1.93 µM | 2.76 µM | – |
| O=C(NC1CCNCC1)c1n[nH]cc1NC(=O)c1c(Cl)cccc1Cl [AT7519] | 0.0693 µM | 0.337 µM | 0.277 µM | – |
